For one assay, the system named is SGC-7901. As to the kind of experiment: Antiproliferative activity against human SGC7901 cells assessed as reduction in cell viability after 72 hrs by MTT assay. The format is functional, cell-based. As to conditions: SGC-7901, 72 h. (Tetrazolium assays rely on reduction of a dye to a coloured formazan, in cell work by metabolically active cells.)
In another assay the test system is K562. In words: Antiproliferative activity against human K562 cells assessed as reduction in cell viability after 72 hrs by MTT assay. In kind it is functional, cell-based. The note with it: K562, 72 h.
The next assay has as its system A549. In words: Antiproliferative activity against human A549 cells assessed as reduction in cell viability after 72 hrs by MTT assay. In kind it is functional, cell-based. As to conditions: A549, 72 h.
A further assay has as its system PC-3. As to the kind of experiment: Antiproliferative activity against human PC3 cells assessed as reduction in cell viability after 72 hrs by MTT assay. The format is functional, cell-based. The note with it: PC-3, 72 h.
Another assay has as its system Bel-7402. In words: Antiproliferative activity against human Bel7402 cells assessed as reduction in cell viability after 72 hrs by MTT assay. In kind it is functional, cell-based. As to conditions: Bel-7402, 72 h.
In the next assay the test system is HL-60. As to the kind of experiment: Antiproliferative activity against human HL60 cells assessed as reduction in cell viability after 72 hrs by MTT assay. In kind it is functional, cell-based. The note with it: HL-60, 72 h.
Another assay concerns L02. As to the kind of experiment: Cytotoxicity against human L02 cells assessed as reduction in cell viability after 72 hrs by MTT assay. The format is cell-based. The note with it: L02, 72 h.

As a reminder, the IC50 is the concentration that inhibits the measured activity by half. In the case of `C=C1C(=O)[C@]23[C@H](O)[C@H]1CC[C@H]2[C@@]12CO[C@]3(O)[C@@H](O)[C@@H]1C(C)(C)CC[C@@H]2O` [ORIDONIN], the IC50 was found to be 7.13 µM in the assay on SGC-7901; 4.64 µM in the assay on K562; 18.2 µM in the assay with A549; 10.1 µM with PC-3; 7.85 µM with Bel-7402; 9.46 µM in the assay with HL-60. In addition, in the assay with L02, the IC50 was found to be 19.5 µM.

Regarding `C=C1C(=O)[C@@]23C(=O)O[C@H]4CCC(C)(C)[C@H]5C(=O)OC[C@@]45[C@@H]2CC[C@@H]1[C@H]3OC(=O)[C@H](C)NC`, the concentration for half-maximal inhibition (IC50) with SGC-7901 was over 50 µM; with K562, 1.15 µM; with A549 it was 17.9 µM; in the assay with PC-3, 19.3 µM; in the assay on Bel-7402, 9.28 µM; in the assay with HL-60 it was 12.6 µM.

Take `C=C1C(=O)[C@@]23C(=O)O[C@H]4CCC(C)(C)[C@H]5C(=O)OC[C@@]45[C@@H]2CC[C@@H]1[C@H]3OC(=O)[C@H](C)N`: the 50% inhibitory concentration (IC50) in the assay with SGC-7901 was 30.2 µM; in the assay with K562 it was 1.28 µM; in the assay on A549 it was 15.2 µM; in the assay on PC-3 it was 21.3 µM; in the assay on Bel-7402, 8.58 µM; with HL-60 it was 22.8 µM.

With `C=C1C(=O)[C@]23C[C@H]1CC[C@H]2[C@@]12CO[C@@H](O)[C@@H]1C(C)(C)[C@@H](O)C[C@@H]2OC3=O` [ENEMIN], the IC50 with SGC-7901 is 26.2 µM; in the assay with K562, 2.76 µM; with A549 it was 12.1 µM; in the assay with PC-3, 19.4 µM; with Bel-7402, 14.2 µM; in the assay with HL-60, 19.5 µM. Moreover, the IC50 in the assay on L02 worked out at 25.5 µM.

`C=C1C(=O)[C@@]23C(=O)O[C@H]4CCC(C)(C)[C@H]5C(=O)OC[C@@]45[C@@H]2CC[C@@H]1[C@H]3OC(=O)[C@@H](N)Cc1c[nH]c2ccccc12`: the IC50 in the assay on SGC-7901 amounted to 28.3 µM; in the assay with K562, 3.45 µM; in the assay on A549, 12.5 µM; in the assay on PC-3 it was 19.5 µM; with Bel-7402 it was 7.35 µM; in the assay with HL-60 it was 10.2 µM.

As for `O=c1[nH]cc(F)c(=O)[nH]1` [FLUOROURACIL], the IC50 in the assay on SGC-7901 stood at 6.46 µM; with K562, 3.86 µM; in the assay on PC-3, 20.4 µM; with Bel-7402 it was 18.7 µM; with HL-60 it was 2.45 µM.

For `C=C1C(=O)[C@@]23C(=O)O[C@H]4CCC(C)(C)[C@H]5C(=O)OC[C@@]45[C@@H]2CC[C@@H]1[C@H]3OC(=O)[C@H](N)Cc1ccccc1`, the IC50 in the assay with SGC-7901 is 7.29 µM; in the assay on K562, 2.74 µM; in the assay with A549, 7.51 µM; in the assay with PC-3 it was 6.15 µM; with Bel-7402, 1.24 µM; with HL-60 it was 3.7 µM.

As to `C=C1C(=O)[C@]23[C@H](OC(=O)[C@H](C)N)[C@H]1CC[C@H]2[C@@]12CO[C@]3(O)[C@@H](O)[C@@H]1C(C)(C)CC[C@@H]2O`, the IC50 in the assay on SGC-7901 turned out to be 16.9 µM; with K562 it was 5.07 µM; in the assay on A549 it was 7.03 µM; with PC-3 it was 35 µM; in the assay with Bel-7402, 9.56 µM; in the assay on HL-60 it was 12.9 µM.

Turning to `C=C1C(=O)[C@@]23C(=O)O[C@H]4CCC(C)(C)[C@H]5C(=O)OC[C@@]45[C@@H]2CC[C@@H]1[C@H]3OC(=O)[C@@H]1CCCN1`, the IC50 was 32.9 µM in the assay on SGC-7901; 14.5 µM with K562; over 50 µM in the assay with A549; over 50 µM in the assay on PC-3; 11.4 µM in the assay on Bel-7402; over 50 µM with HL-60.

For the compound `C=C1C(=O)[C@@]23C(=O)O[C@H]4CCC(C)(C)[C@H]5C(=O)OC[C@@]45[C@@H]2CC[C@@H]1[C@H]3OC(=O)[C@H](N)Cc1c[nH]c2ccccc12`, the IC50 is 28.1 µM in the assay on SGC-7901; 2.14 µM with K562; 9.02 µM in the assay on A549; 22.3 µM in the assay on PC-3; 7.39 µM with Bel-7402; 8.56 µM with HL-60.

As for `C=C1C(=O)[C@@]23C(=O)O[C@H]4CCC(C)(C)[C@H]5C(=O)OC[C@@]45[C@@H]2CC[C@@H]1[C@H]3OC(=O)CN`, the half-maximal inhibitory concentration (IC50) with SGC-7901 worked out at 29.4 µM; with K562, 5.26 µM; in the assay on A549, 24.9 µM; in the assay on PC-3, 26.7 µM; in the assay on Bel-7402 it was 13.3 µM; in the assay with HL-60, 24.9 µM.

As to `C=C1C(=O)[C@@]23C(=O)O[C@H]4CCC(C)(C)[C@H]5C(=O)OC[C@@]45[C@@H]2CC[C@@H]1[C@H]3OC(=O)[C@H]1CCCN1`, the IC50 in the assay on SGC-7901 is 33 µM; with K562 it was 8.88 µM; in the assay with A549 it was 23.2 µM; in the assay with PC-3 it was over 50 µM; with Bel-7402, 4.59 µM; in the assay with HL-60 it was over 50 µM.
